Read-outs that look alike come from different tables or passages of the source. Ends that are not written are not given here.
Assays:
HLA supertype alleles = assay type: binding, human
HLA transgenic mice = test: CTL priming in HLA transgenic mice after DNA immunization (in situ IFNγ ELISA or chromium release)
HLA-A2 transgenic mice = test: IFN-γ ELISPOT CTL responses after DNA immunization; assay type: in vivo, mouse; conditions: mice immunized with GCR-5835
H2^bxd mice = test: CTL response after peptide/IFA immunization, in situ ELISA; assay type: in vivo, mouse; conditions: peptide/IFA immunization of H2^bxd mice
[1] = tested on: PBL from individuals with acute or chronic HBV infection; conditions: independently reported (Sobao et al. 2001); cited from earlier work
HLA-A*0101 = HLA-A*0101 (Homo sapiens, UniProt P04439, A114D/A174V/A182V/D101N/D185E/E176A/E190D/L180R/Q94H/R68K/S129P/T187R/V100A/V91M/W191G); test: HLA class I peptide binding assay (purified HLA, IC50)
[2] = A2, A3 or B7 supertype, five most common members
[3] = A1 or A24 supertype, three related alleles

Molecule | XRN (number of supertype alleles bound ≦500 nM) (HLA supertype alleles; [2]) | IC50 (HLA-A*0101) [nM] | XRN (number of supertype alleles bound ≦500 nM) (HLA supertype alleles; [3]) | also measured
CC[C@H](C)[C@H](NC(=O)[C@@H](NC(=O)[C@H](CC(C)C)NC(=O)[C@@H](NC(=O)[C@H](CCCNC(=N)N)NC(=O)[C@@H](NC(=O)[C@H](CC(C)C)NC(=O)[C@H](CC(C)C)NC(=O)[C@@H](N)Cc1ccccc1)[C@@H](C)O)[C@@H](C)CC)[C@@H](C)O)C(=O)O [env 183] | 4 | – | – | Immunogenicity of the epitope in construct HBV30C (HLA transgenic mice; mouse, in vivo): poorly immunogenic
CC(C)C[C@H](NC(=O)[C@H](CO)NC(=O)[C@H](CC(C)C)NC(=O)[C@@H](N)Cc1c[nH]c2ccccc12)C(=O)N[C@@H](CC(C)C)C(=O)N[C@H](C(=O)N1CCC[C@H]1C(=O)N[C@@H](Cc1ccccc1)C(=O)N[C@H](C(=O)O)C(C)C)C(C)C [env 335] | 4 | – | – | Primary ELISPOT response (HLA-A2 transgenic mice): approximately 100 SFC/10^6 CD8+ cells
CC(C)C[C@H](NC(=O)[C@H](CC(C)C)NC(=O)[C@H](Cc1c[nH]c2ccccc12)NC(=O)[C@@H]1CCCN1C(=O)[C@H](Cc1ccccc1)NC(=O)[C@H](CO)NC(=O)[C@@H](NC(=O)[C@H](Cc1ccc(O)cc1)NC(=O)[C@@H](N)CCCCN)[C@@H](C)O)C(=O)O [pol 745] | – | – | – | Murine Immunogenicity (SU) (H2^bxd mice): 158.7 SU; Recognition by CTL from HBV-infected individuals [1]: recognized by CTL from HBV-infected individuals
H-YSLNFMGY-OH [pol 580] | – | 382 | 3 | –
LTFGRETVLEY [core 137] | – | 80 | 3 | –
HBV30K: lead 30 epitope HBV CTL vaccine epigene construct, SEQ ID NO: 71/72 (nucleic acid, Hepatitis B Virus) DNA: ATGGGAATGCAGGTGCAAATACAGTCTCTCTTCCTTTTGCTTCTCTGGGTTCCAGGATCACGGGGCTTCTTGCTTAGCTTGGGCATCCACCTAAATGCTGCTGCAAAATACACATCTTTTCCTTGGCTCCTTAATGCCGCCGCTAGGTTTTCATGGCTGAGTCTGCTAGTACCTTTCAATGCGGCTTTCCCACATTGCCTAGCTTTTAGCTATATGAAAGCTGCTTTAGTCGTGGACTTTTCACAGTTTAGCAGAGGAGCAATCCTGCTGCTATGTCTGATATTCCTTCTAAACGCAGCAGCCCACACACTCTGGAAAGCTGGTATCCTTTACAAGAAAGCCTGGATGATGTGGTATTGGGGACCCAGCCTCTACAAAGCATACCCTGCCCTGATGCCACTATACGCATGCATTGGCGCGGCAGCCTGGTTATCCCTTTTAGTACCGTTTGTCAACGCCGCAGCGGGATTTCTATTAACCAGAATCCTGACGATTAATGCTGCCGCCATTCCGATCCCAAGTTCCTGGGCATTCAAAGCAGCCGCGGAGTATCTGGTTTCATTTGGCGTATGGAACCTGCCAAGCGACTTCTTTCCTTCTGTTAAGGCCGCTGCTTTCCTCCCCTCCGATTTCTTTCCATCGGTGAAAGCCGCTGCCGACCTCCTTGATACCGCGAGCGCTCTGTACAACTCGTGGCCAAAATTCGCAGTTCCAAACCTAAAAGCCGCCGCCAGTGCCATTTGTTCCGTGGTAAGGAGAAAATTATCACTCGACGTGTCCGCAGCATTTTATAACGCTGCTGCAAAGTTTGTCGCAGCATGGACATTGAAGGCTGCAGCGAAAGCAGCAAATGTATCAATACCCTGGACCCACAAGGGTGCAGCCGGGCTGTCTAGGTATGTGGCGAGGCTAAACGCCGCCGCCTCAACACTGCCTGAGACTACTGTCGTGAGACGCAAACACCCTGCCGCAATGCCCCACCTGCTGAAAGCAGCCGCACGATGGATGTGCCTCAGAAGATTCATAATAAACGCTTCTTTCTGTGGGTCACCCTACAAAGCCGCTTACATGGACGATGTGGTCCTCGGAGTGAATGCCCTCTGGTTCCATATCAGCTGCCTGACATTCAAGGCAGCCGCCACCCCCGCTCGTGTGACAGGAGGTGTCTTCAAAGCCGCGGCACTGACTTTCGGTCGGGAAACTGTATTGGAATATAAGCAGGCCTTCACATTCTCCCCAACATACAAGTGA | – | – | – | CTL responses induced by the construct (in words) (HLA transgenic mice; HLA transgenic mice (HLA-A2, -A3/A11; H2^bxd for A24)): CTL responses as vigorous as HBV2

Source: patent publication US7507803B2, “Optimized multi-epitope constructs and uses thereof” (priority 2002, dated 2009)
